The values below come from PMC10901556, “Conservation of Affinity Rather Than Sequence Underlies a Dynamic Evolution of the Motif-Mediated p53/MDM2 Interaction in Ray-Finned Fishes” (Molecular Biology and Evolution, 2024).

Holding throughout (experiment): Fluorescence polarization displacement assay
Holding throughout (type): binding
(In general: Polarisation of emitted light reports the rotation of a fluorescent probe.)

For test [1], the target named is T1, MDM2H.sapiens SWIB domain (Homo sapiens, UniProt Q00987).
T1 construct: NusA-TEV-His6-PreScission (N, cleaved yes); made in house; host or cells: Escherichia coli BL21 (DE3)
T1 sequence (Q00987 with tags, fused parts or gaps): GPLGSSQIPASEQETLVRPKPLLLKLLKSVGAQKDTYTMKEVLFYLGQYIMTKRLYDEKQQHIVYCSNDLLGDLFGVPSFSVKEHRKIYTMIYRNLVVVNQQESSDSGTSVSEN

Test [2] has as its target MDM2 SWIB domain, Oncorhynchus kisutch. Particulars: for Kd: FP displacement of FITC-p53TADhuman^15–26 (15 nM) from MDM2, KD from IC50, 20 mM sodium phosphate pH 7.4, 150 mM NaCl, 1 mM TCEP; for IC50 / Ki: O.kis MDM2 2000 nM.
Test [3] has as its target MDM2 SWIB domain, Clupea harengus. Particulars: for Kd: FP displacement of FITC-p53TADhuman^15–26 (15 nM) from MDM2 (1 μM), KD from IC50, 20 mM sodium phosphate pH 7.4, 150 mM NaCl, 1 mM TCEP.
The target in test [4] is MDM2 SWIB domain, Anguilla anguilla. Particulars: for Kd: FP displacement of FITC-p53TADhuman^15–26 (15 nM) from MDM2 (1 μM), KD from IC50, 20 mM sodium phosphate pH 7.4, 150 mM NaCl, 1 mM TCEP.
Sequence of MDM2 SWIB domain, Anguilla anguilla (as listed by the source): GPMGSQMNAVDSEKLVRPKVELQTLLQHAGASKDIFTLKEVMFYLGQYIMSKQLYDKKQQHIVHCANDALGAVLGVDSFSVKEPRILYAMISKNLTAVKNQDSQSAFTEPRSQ
Where [5] appears, read: labeled probe 15 nM, replicate 1, read-out: IC50 [M] (IT).
Setting [6] is: labeled probe 15 nM, replicate 2, read-out: IC50 [M] (IT).
[7] abbreviates: labeled probe 15 nM, replicate 3, read-out: IC50 [M] (IT).
[8] abbreviates: average of the replicates, probe 15 nM, Kd for probe […], read-out: Ki [nM] Average.
Where [9] appears, read: average of the replicates, probe 15 nM, Kd for probe […], read-out: Ki [µM] Average.
[10] abbreviates: calculated from IC50, Kd for probe […], probe 15 nM, replicate 1, read-out: Ki.
Setting [11] is: calculated from IC50, Kd for probe […], probe 15 nM, replicate 2, read-out: Ki.
The mark [12] stands for this setting: calculated from IC50, Kd for probe […], probe 15 nM, replicate 3, read-out: Ki.
[13] abbreviates: mean of the replicates, probe 15 nM, read-out: IC50 [nM], mean of the replicates.
[14] abbreviates: equals the mean of the replicates, read-out: IC50 [nM], mean.
Where [15] appears, read: mean of the replicates (n = 3 or 6), read-out: Ki [nM] Average.
The mark [16] stands for this setting: mean of the replicates (n = 3 or 6), read-out: Ki [µM] Average.
The mark [17] stands for this setting: replicate 1, MDM2 1000 nM, labeled probe 15 nM, read-out: IC50 [M] (IT).
Where [18] appears, read: replicate 1, calculated from IC50 with Kd for probe […], read-out: Ki.
The mark [19] stands for this setting: replicate 2, MDM2 1000 nM, labeled probe 15 nM, read-out: IC50 [M] (IT).
The mark [20] stands for this setting: replicate 2, calculated from IC50 with Kd for probe […], read-out: Ki.
Where [21] appears, read: replicate 3, MDM2 1000 nM, labeled probe 15 nM, read-out: IC50 [M] (IT).
Setting [22] is: replicate 3, calculated from IC50 with Kd for probe […], read-out: Ki.

Where two headings read alike, the source gives them in different places. Where no end group is shown, it is not given here.

Sequence of MDM2 SWIB domain, Clupea harengus (as listed by the source): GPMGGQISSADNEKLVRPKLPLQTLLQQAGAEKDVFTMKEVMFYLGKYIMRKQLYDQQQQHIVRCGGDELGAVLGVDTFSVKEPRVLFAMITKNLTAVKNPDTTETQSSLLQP
Sequence of MDM2 SWIB domain, Oncorhynchus kisutch (as listed by the source): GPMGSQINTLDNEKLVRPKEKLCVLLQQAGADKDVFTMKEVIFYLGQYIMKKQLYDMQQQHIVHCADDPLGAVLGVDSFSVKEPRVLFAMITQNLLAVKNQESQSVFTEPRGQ

What is called IC50 is the concentration needed to halve the response being measured. Usually Ki stands for a dissociation constant, usually derived from enzyme kinetics or from competition with a known ligand. Regarding `CC[C@H](C)[C@H](NC(=O)[C@H](CO)NC(=O)[C@H](CC(N)=O)NC(=O)[C@H](Cc1c[nH]c2ccccc12)NC(=O)[C@H](CC(C)C)NC(=O)[C@H](CC(=O)O)NC(=O)[C@H](CCC(=O)O)NC(=O)[C@H](Cc1ccccc1)NC(=O)[C@H](CC(=O)O)NC(=O)[C@@H]1CCCN1C(=O)[C@H](CO)NC(=O)[C@H](CC(=O)O)NC(C)=O)C(=O)N[C@H](C(=O)O)C(C)C` [C.har p53 P2 short], in test [1], the IC50 came out at 2310 nM and affinity was put at a Ki of 293 nM.

For `CC(C)C[C@H](NC(=O)[C@@H](NC(=O)[C@H](CC(N)=O)NC(=O)[C@H](CC(N)=O)NC(=O)[C@H](CCC(=O)O)NC(=O)[C@H](C)NC(=O)[C@H](CC(C)C)NC(=O)[C@H](CC(C)C)NC(=O)[C@H](CCCCN)NC(=O)[C@H](Cc1c[nH]c2ccccc12)NC(=O)[C@H](CC(C)C)NC(=O)[C@H](CC(=O)O)NC(=O)[C@H](CO)NC(=O)[C@H](Cc1ccccc1)NC(=O)[C@@H](NC(=O)[C@@H](N)CCC(=O)O)[C@@H](C)O)C(C)C)C(=O)O` [H.sap p53 P27A], in test [1] (probe 15 nM, protein 200 nM, calculated Ki negative), the “remark on affinity beside the average Ki” value is “very high affinity”.

Regarding Ac-GQCSFQQLWESNM [O.kis p53 P1a short], in test [1], the IC50 came to 23200 nM and the Ki amounted to 3150 nM.

As to Ac-SQDETFQALWNTVT [A.ang p53 P2 short], in test [1], the IC50 stood at 5780 nM and the Ki was determined as 767 nM.

Ac-SQDSFKELWDQLP [M.zeb p53 P1 short]: in test [1], the IC50 worked out at 2150 nM and the Ki stood at 270 nM.

As for Ac-SQDSFRELWESVV [C.arg p53 P1 short], in test [1], the IC50 is 8080 nM and the Ki was 1080 nM.

In test [1], Ac-SQDTFQDLWENVA [T.rub p53 P1 short] gave an IC50 of 12700 nM and a Ki of 1710 nM.

In test [1], Ac-SQESFEDLWKMNL [O.kis p53 P2 short] returned an IC50 of 5930 nM and a Ki of 787 nM.

In test [1], Ac-SQESFQDLWNMVT [Acti p53 ML] returned an IC50 of 1510 nM and a Ki of 183 nM.

Compound Ac-SQESFQELWKMIL [Tele p53 AA] showed an IC50 in test [1] of 105 nM. In test [1] (FP displacement, printed in nM (Fig. S4 A native and B human MDM2)), the KD result is given as “lowest_Kd”. The “Ki, remark beside the average” value in test [1] (H.sap MDM2, labeled probe 15 nM, protein 200 nM, result in words) is “very high affinity”.

Consider Ac-SQESFQELWKMMC [A.ang p53 P1 short], for which, in test [1], the IC50 turned out to be 265 nM and the inhibitory constant (Ki) is 12.9 nM.

Broadly, the Kd is a measure of binding affinity in units of concentration. On to Ac-SQESFQELWNMVA [Acti p53 AA], for which, in test [1], the IC50 is 459 nM and the Kd was found to be 39 nM.

In test [1], Ac-SQESFQELWNMVI [L.ocu p53 short] came in with an IC50 of 1050 nM and a Ki of 120 nM.

Take Ac-SQESFQELWNMVM [Tele p53 ML]: in test [1], the IC50 is 456 nM and the Kd is 39 nM.

In test [1], Ac-SQGTFDEIWASNF [C.har p53 P1 short] came in with a half-inhibitory concentration (IC50) of 9330 nM and a Ki of 1250 nM.

For the compound “GPMGMADLAENVSLPLSQESFEDLWKMNLNLMAVQPPVTESWVGYDNFMMEAPLQVEFDPSLFEVSATEPAPQPSISTLDTGSPPTST [O.kis p53 P2 full, expressed full-length coho salmon p53TAD paralog 2]”, in test [2], the Kd was 70 ± 10 nM. In addition, the IC50 in test [2] (setting [5]) was 2.13e-06 M; in test [2] (setting [6]) it was 2.37e-06 M; in test [2] (setting [7]) it was 2.18e-06 M; in test [2] (setting [13]), 2.23e-06 M. Also, the Ki in test [2] (setting [8]) is 68.6 nM; in test [2] (setting [9]), 69 nM; in test [2] (setting [10]), 55.4 nM; in test [2] (setting [11]), 88.9 nM; in test [2] (setting [12]), 61.7 nM.

With “GPMGMEELSPPLGQCSFQQLWESNMTPQGPSIPLVATENWSDLDVSLLPDATLHKVFDEVLFELLEPPVVEPSVSTLDSVPPPAST [O.kis p53 P1a full, expressed full-length coho salmon p53TAD paralog 1a]”, binding in test [2] was put at a Kd of 48 ± 5 nM. For the same compound, the IC50 was determined as 2.11e-06 M in test [2] (setting [5]), 2.02e-06 M in test [2] (setting [6]), 2.12e-06 M in test [2] (setting [7]) and 2.08e-06 M in test [2] (setting [13]). Besides, the Ki was 48.4 nM in test [2] (setting [8]); 48 nM in test [2] (setting [9]); 52.4 nM in test [2] (setting [10]); 38.8 nM in test [2] (setting [11]); 54.1 nM in test [2] (setting [12]).

In the case of “GPMGMEEQELSFPMSQGSFQQLWETNMSTQGSNIPPFGTGNWSDLDVSLAPVLPEATFHEDFDEGLFELPEPLAVEPLMSPLDSVPPPAST [O.kis p53 P1b full, expressed full-length coho salmon p53TAD paralog 1b]”, binding in test [2] was characterised by a dissociation constant (Kd) of 60 ± 10 nM. Also, the IC50 was 2.27e-06 M in test [2] (setting [5]), 2.26e-06 M in test [2] (setting [6]), 1.96e-06 M in test [2] (setting [7]) and 2.16e-06 M in test [2] (setting [13]). Also, the Ki was 59.6 nM in test [2] (setting [8]); 60 nM in test [2] (setting [9]); 75.2 nM in test [2] (setting [10]); 73.4 nM in test [2] (setting [11]); 30.3 nM in test [2] (setting [12]).

“GPMGMNDQGDSPDFEDLWNSIVPPVADVPWETSYLPESFDEQVFEQLQVSEPYIPTLGGGSPPCSA [C.har p53 P2 full, expressed full-length Atlantic herring p53TAD paralog 2]”: in test [3], the dissociation constant (Kd) came to 40 ± 10 nM. Besides, the IC50 in test [3] (setting [14]) worked out at 904 nM; in test [3] (setting [17]) it was 913 nM; in test [3] (setting [19]), 983 nM; in test [3] (setting [21]) it was 815 nM. The inhibitory constant (Ki) in test [3] (setting [15]) is 37.1 nM; in test [3] (setting [16]), 37 nM; in test [3] (setting [18]), 39.8 nM; in test [3] (setting [20]), 59.7 nM; in test [3] (setting [22]), 11.9 nM.

As for “GPMGMNQDEMTELPMSQGTFDEIWASNFVNNLDKTILDDLPPAFSNPSIHTLMDLGPSGVEGFVGLELPLDGSAPTPSSSPGMDCLPPTATT [C.har p53 P1 full, expressed full-length Atlantic herring p53TAD paralog 1]”, in test [3], the affinity, expressed as Kd, was 190 ± 40 nM. Besides, the IC50 in test [3] (setting [14]) came out at 1440 nM; in test [3] (setting [17]), 1470 nM; in test [3] (setting [19]), 1660 nM; in test [3] (setting [21]), 1180 nM. Besides, the Ki in test [3] (setting [15]) is 189 nM; in test [3] (setting [16]), 190 nM; in test [3] (setting [18]), 199 nM; in test [3] (setting [20]), 252 nM; in test [3] (setting [22]), 117 nM.

As for “GPMGMTEQEAESLPLSQESFQELWKMMCPPATIHEPLSVNDGWHLESLLSETPLQESIDAGVFDLPTTLPPQPSVSAFNGDAALSST [A.ang p53 P1 full, expressed full-length European eel p53TAD paralog 1]”, in test [4], the Kd amounted to 230 ± 20 nM. The IC50 stood at 2210 nM in test [4] (setting [14]), 2080 nM in test [4] (setting [17]), 2490 nM in test [4] (setting [19]) and 2060 nM in test [4] (setting [21]). In addition, the Ki is 229 nM in test [4] (setting [15]); 229 nM in test [4] (setting [16]); 208 nM in test [4] (setting [18]); 277 nM in test [4] (setting [20]); 203 nM in test [4] (setting [22]).

In turn, “GPMGMTEQEGTGALEYSLSQDETFQALWNTVTVPTEDEGWGSLDNQYLVGSPLQDGFDEKLFDVPATPAPPQPSGSALDSGAPPAST [A.ang p53 P2 full, expressed full-length European eel p53TAD paralog 2]” came in with a Kd in test [4] of 60 ± 10 nM. Besides, the IC50 was 1230 nM in test [4] (setting [14]), 1360 nM in test [4] (setting [17]), 1080 nM in test [4] (setting [19]) and 1240 nM in test [4] (setting [21]). In addition, the inhibitory constant (Ki) was 63.5 nM in test [4] (setting [15]); 63.5 nM in test [4] (setting [16]); 85.1 nM in test [4] (setting [18]); 39.5 nM in test [4] (setting [20]); 65.8 nM in test [4] (setting [22]).
